Experimental data as given in US7071182B2, “Antagonists of melanin concentrating hormone effects on the melanin concentrating hormone receptor” (Abbott Laboratories, priority 2003, dated 2006).

Assay: Pharmacokinetic drug levels in whole brain after 10 mpk oral dose in DIO mice
Format: in vivo
Details: harvested 0.5-24 h after the dose

O=C(Nc1ccc(Oc2ccccc2)cc1)Nc1ccc2c(cnn2CCN2CCCC2)c1 [Example 24, N-(4-phenoxyphenyl)-N′-[1-(2-pyrrolidin-1-ylethyl)-1H-indazol-5-yl]urea]
Brain Conc. AUC: 1428 ng·h/g
